Measurements: article PMC5540879 (Molecular cancer research : MCR, 2017)

molecular target: T1, OATP1B3 (Homo sapiens, UniProt Q9NPD5); assay: radiolabeled uptake kinetics; type: cell-based; conditions: oatp1b3-cho cells
T1 sequence (Q9NPD5 1-702): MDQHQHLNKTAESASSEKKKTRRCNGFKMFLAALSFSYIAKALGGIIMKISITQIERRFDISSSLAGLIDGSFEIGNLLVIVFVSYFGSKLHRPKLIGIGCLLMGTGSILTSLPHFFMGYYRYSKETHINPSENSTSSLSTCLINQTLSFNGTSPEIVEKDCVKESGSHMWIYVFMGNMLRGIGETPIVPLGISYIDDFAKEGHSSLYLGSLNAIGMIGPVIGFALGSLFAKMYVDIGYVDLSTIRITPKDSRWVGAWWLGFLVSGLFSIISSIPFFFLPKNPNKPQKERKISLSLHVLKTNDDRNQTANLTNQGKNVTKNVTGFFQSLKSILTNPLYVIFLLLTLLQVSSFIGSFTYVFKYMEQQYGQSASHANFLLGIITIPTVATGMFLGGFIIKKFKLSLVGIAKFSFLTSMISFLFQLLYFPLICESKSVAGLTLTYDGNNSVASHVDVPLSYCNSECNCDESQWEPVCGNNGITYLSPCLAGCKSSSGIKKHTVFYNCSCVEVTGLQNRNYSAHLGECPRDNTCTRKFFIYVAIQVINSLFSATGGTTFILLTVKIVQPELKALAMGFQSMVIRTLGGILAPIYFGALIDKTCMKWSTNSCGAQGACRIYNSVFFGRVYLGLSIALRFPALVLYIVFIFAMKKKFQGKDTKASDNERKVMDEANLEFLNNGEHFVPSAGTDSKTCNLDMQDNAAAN

C[C@]12CCC(=O)C[C@@H]1CC[C@@H]1[C@@H]2CC[C@]2(C)[C@@H](O)CC[C@@H]12 [DHT] and C[C@]12CC[C@H]3[C@@H](CCC4=CC(=O)CC[C@@]43C)[C@@H]1CC[C@@H]2O [testosterone] are within error of each other in Km: 30.4 ± 9.3 µM for the first, 23.2 ± 3.9 µM for the second.

C[C@]12CCC(=O)C=C1CC[C@@H]1[C@@H]2CC[C@]2(C)C(=O)CC[C@@H]12 [androstenedione, 4-androstene-3,17-dione] gave a Km of 31.7 ± 9.5 µM.
